# Measured values published in patent US20170306409A1, “CANCER PATIENT SELECTION FOR ADMINISTRATION OF WNT SIGNALING INHIBITORS USING RNF43 MUTATION STATUS” (NOVARTIS AG, priority 2012, published 2017).
# Tests used:
# [1] = system: STF Wnt reporter, YAPC-STF cells; test: SuperTOPFlash (STF) luciferase reporter assay; type: cell-based, human; settings: absence of exogenous Wnt3a, LGK974 or IWP-2
# Description: For the luciferase reporter assay, YAPC-STF reporter cells were transfected with siRNA and treated with Wnt3a conditioned medium or compound where applicable. STF luciferase assays were performed using BrightGlo Luciferase Assay kits (Promega) according to the manufacturer's instructions.
# To construct pancreatic cell lines expressing STF reporter, HEK293 cells were grown in medium recommended by ATCC supplemented with 10% FBS. Retrovirus or lentivirus was produced from HEK293 cells by standard virus packaging procedure using FuGENE 6 (Roche) transfection reagent. Pancreatic cell lines expressing STF reporter, RNF43 constructs, or DOX-inducible β-catenin shRNA were generated by viral infection and drug selection.
# Depletion of RNF43 induces Dvl phosphorylation and β-catenin stabilization. […] RNF43 siRNA-induced STF activity in the absence of exogenous Wnt3a is inhibited by LGK974 and a previously known Porcupine inhibitor IWP-2. Chen B et al. (2009) Nat. Chem. Biol. 5(2):100-7. See, FIG. 3(b), showing that this activity is dependent on the expression of endogenous Wnt proteins.
# RNF43 mRNA, YAPC cells = test: quantitative RT-PCR gene expression analysis; type: cell-based, human; settings: 1 μM of LGK974
# Description: FIG. 4(a) is a bar graph showing that the depletion of β-catenin decreases mRNA level of AXIN2 and RNF43. Cells were treated with siRNA, and relative mRNA levels of indicated genes were analyzed by quantitative RT-PCR. […] YAPC cells were treated with 3 μM of IWP2 or 1 μM of LGK974, and subjected to gene expression analysis by quantitative RT-PCR.
# For reverse transcription and quantitative PCR (qPCR), total RNA was extracted from cells or tumors using the RNeasy Plus Mini Kit (Qiagen). 1 μg of RNA were reverse transcribed with Taqman Reverse Transcription Reagents (Applied Biosystems) according to the manufacturer's instruction. Quantitative PCR was performed in 12 μl reactions consisting of 0.6 μl of 20× Taqman probe and PCR primer mix, 6 μl 2× Taqman FAST Advanced Master Mix (Applied Biosystems), and 5.4 μl diluted cDNA template. The thermocycling conditions utilized were 20 seconds at 95° C., followed by 40 cycles of 1 second at 95° C. and 20 seconds at 60° C. All experiments were performed in quadruplicates. Gene expression analysis was performed using the comparative ΔΔCT method and normalized with the housekeeping gene GUSB or 18S. The Taqman probes were purchased from Applied Biosystems.
# Consistent with this observation, treatment of Porcupine inhibitor IWP2 or LGK974 increased the cell surface level of Frizzled and decreased the mRNA levels of AXIN2 and RNF43. See, FIG. 4(b). […]
# Capan-2 xenografts = test: PDAC xenograft model, in vivo efficacy and pharmacodynamics; design: species or system mice
# Text: (§1) To analyze the role of Wnt pathway activation in maintenance of RNF43 mutant pancreatic tumors in vivo, we utilized two PDAC xenograft models (HPAFII and Capan-2).
# (§2) For in vivo efficacy and pharmacodynamic studies, cells were harvested at a density of 95-110% confluency. 10 million cells (HPAFII) or 3 million cells (Capan-2) mixed 50:50 with BD matrigel matrix basement membrane (Matrigel) (BD Biosciences) were subcutaneously implanted into the upper right supra-axillary region of nu/nu (Harlan) (HPAFII) or scid.bg (Harlan) (Capan-2) mice. Tumors were monitored twice weekly by calipering and tumor volumes (TV) were calculated using the ellipsoid formula: TV(mm^3)=((l×w^2)×3.14159))/6. Xenograft tumor-bearing mice were randomized to treatment groups (n=8 per group) either 14 days post tumor implant (Capan-2), when the mean tumor volume reached 223 mm^3 (range 200-250 mm^3) or 11 days post implant (HPAFII), when the mean tumor volume reached 341 mm^3 (range 272-418 mm^3). Mice were treated by oral gavage (p.o.) twice daily (BID) at a dosing volume of 10 mL/kg with either vehicle (0.5% methylcelluose (MC)/0.5% Tween 80) or a 0.65 mg/mL suspension of the fumarate salt form of LGK974 (LGK974-AE-4, free base molecular weight conversion factor 1.293) in 0.5% MC/0.5% Tween 80. In vivo doses are reported as free base equivalents. Following treatment for 14 days (HPAFII) or 35 days (Capan-2), anti-tumor activity was reported as percent treatment/control (% T/C) or % Regression (% REG) values. Anti-tumor activity was calculated using the following formula: % T/C=100 ΔΔTt/ΔCt if ΔTt≧0; or % REG=100 ΔΔTt/T0 if ΔTt<0; where: T0=mean tumor volume (TV) of the drug-treated group on the day of randomization; Tt=mean TV of the drug-treated group at study end; […]; Ct=mean TV of the control group on the final day of the study; C0=mean TV of the control group on the day of randomization; and ΔCt=C0−Ct*% T/C values in the range of 100 to 42% are interpreted to have no anti-tumor activity; % T/C values 42% and >10% are interpreted to have anti-tumor activity, % T/C values 10% or % REG≧-10% are interpreted to be tumor stasis. % REG values <-10% are interpreted as regressions. Separate, parallel cohorts of animals (n=3 per treatment and time point) were treated with vehicle or LGK974 as above to obtain tumor tissue for ex vivo analysis of pharmacodynamic markers.
# (§3) Furthermore, treatment of mice bearing Capan-2 xenografts with 5 mg/kg LGK974, p.o. BID for 35 days achieved tumor stasis (T/C=5%). Consistent with the mechanism of action of LGK974, expression of the β-catenin target gene, AXIN2, was decreased in treated HPAFII and Capan-2 xenografts.
# HPAFII xenografts = test: as above; design: species or system mice
# Text: as §1, §2, §3
structure (smiles),measurement,setting,value
"Cc1cc(-c2ncc(CC(=O)Nc3ccc(-c4cnccn4)cn3)cc2C)ccn1 [LGK974, 2-[5-methyl-6-(2-methylpyridin-4-yl)pyridin-3-yl]-N-[5-(pyrazin-2-yl)pyridin-2-yl]acetamide]",RNF43 siRNA-induced STF activity,[1],inhibited
same,mRNA level of RNF43,"RNF43 mRNA, YAPC cells",decreased
same,cell cycle arrest and differentiation within the xenograft tumors,Capan-2 xenografts; Capan-2 xenograft tumors,induced cell cycle arrest and differentiation
same,T/C (tumor stasis),"Capan-2 xenografts; mice bearing Capan-2 xenografts, 5 mg/kg p.o. BID for 35 days",5%
same,expression of the β-catenin target gene AXIN2 in xenografts,Capan-2 xenografts; treated Capan-2 xenografts,decreased
same,cell cycle arrest and differentiation within the xenograft tumors,HPAFII xenografts; HPAFII xenograft tumors,induced cell cycle arrest and differentiation
same,T/C (tumor growth in treated relative to vehicle),"HPAFII xenografts; mice bearing HPAFII xenografts, 5 mg/kg p.o. BID for 14 days",33%
same,expression of the β-catenin target gene AXIN2 in xenografts,HPAFII xenografts; treated HPAFII xenografts,decreased
